The test system of this assay is pancreatic endocrine progenitors. In words: Addition of small molecules ISX9 and Wnt-C59 at Stage 5, flow cytometry of β cell marker expression in Stage 6 aggregates. It is filed as cell-based, human. As to conditions: added at Stage 5 of the hPSC differentiation protocol (10 μM ISX9, 100 nM Wnt-C59). From the text:
FIG. 5 illustrates establishment of efficient hPSC-islet generation protocol and characterization of hPSC-islets. a, Flow cytometry analysis comparing differentiation efficiencies between planar culture and suspension culture at various stages of the protocol in terms of pancreatic progenitor markers at the end of Stage 4 and β cell markers at the end of Stage 6 (n=5). b, Flow cytometry of β cell marker expression in Stage 6 aggregates without and with addition of small molecules ISX9 and Wnt-C59, individually or in combination at Stage 5, detected at S6D2 (n=4). c, Continuous stage-wise tracking of pancreatic progenitor, endocrine progenitor, and β cell markers by flow cytometry throughout the differentiation protocol (n=3). (d-h) In vitro characterization of stage 6 islet-like aggregates. d, Representative immunostaining of key β cell transcription factors in sectioned Stage 6 aggregates. Scale bar, 50 μm. e, C-peptide secretion of Stage 6 aggregates (n=3) and primary human islets in static glucose stimulation assay (n=2). Glucose stimulation index as indicated above bars. f, Insulin secretion of hPSC-islets in dynamic perifusion assay. g, Electron microscopy depicting ultrastructure of Stage 6 β cell and insulin granules. Scale bar, 2.5 μm. h, Glucagon secretion by hPSC-islets in static glucose stimulation assay. […]
In general terms: A flow cytometer gives signals particle by particle.

These results are taken from patent US20250002863A1, “METHOD OF GENERATING FUNCTIONAL ISLETS FROM PLURIPOTENT STEM CELLS” (HANGZHOU REPROGENIX BIOSCIENCE, INC., priority 2021, published 2025).

As to `O=C(NC1CC1)c1cc(-c2cccs2)on1` [ISX9, Isoxazole 9], the “differentiation of pancreatic progenitors / terminal differentiation of pancreatic endocrine progenitors” value was “promoted the terminal differentiation of pancreatic endocrine progenitors”.
